# In patent publication US10487093B2, “Heterocyclic compounds, in particular 2-oxo-4,4,5,5,6,6,7,7-octahydrobenzoxazole derivatives, and their use as antibacterial compounds” (priority 2016, dated 2019):
# Tests used:
# [1] = system: Streptococcus pneumoniae ATCC 49619; test: MIC, broth microdilution (CLSI) versus planktonic bacteria; format: cell-based; conditions: ATCC49619; Streptococcus pneumoniae ATCC 49619; 16-20 h; mode of three independent experiments; read-out: MIC, Sp ATCC 49619
# [2] = system: Enterobacter cloacae NCTC 13406; test: as above; format: cell-based; conditions: NCTC13406; Enterobacter cloacae NCTC 13406; 16-20 h; mode of three independent experiments; read-out: MIC, Ecl NCTC 13406
# [3] = system: Acinetobacter baumannii NCTC 13420; test: as above; format: cell-based; conditions: NCTC13420; Acinetobacter baumannii NCTC 13420; 16-20 h; mode of three independent experiments; read-out: MIC, Ab NCTC 13420
# [4] = system: Pseudomonas aeruginosa ATCC 27853; test: as above; format: cell-based; conditions: ATCC27853; Pseudomonas aeruginosa ATCC 27853; 16-20 h; mode of three independent experiments; read-out: MIC, Pa ATCC 27853
# [5] = system: human hepatic cell line (HepG2 ATCC HB-8065); test: Human cell viability assay (CellTiter-Glo); conditions: Homo sapiens, HepG2, 24 h, read-out: IC50 (μg/mL) HepG2
# [6] = system: Staphylococcus aureus ATCC 29213; test: MIC, broth microdilution (CLSI) versus planktonic bacteria; format: cell-based; conditions: ATCC29213; Staphylococcus aureus ATCC 29213; 16-20 h; mode of three independent experiments; read-out: MIC, Sa ATCC 29213
# [7] = system: Haemophilus influenzae ATCC 49247; test: as above; format: cell-based; conditions: ATCC49247; Haemophilus influenzae ATCC 49247; 16-20 h; mode of three independent experiments; read-out: MIC, Hi ATCC 49247
# [8] = system: Escherichia coli ATCC 25922; test: as above; format: cell-based; conditions: ATCC25922; Escherichia coli ATCC 25922; 16-20 h; mode of three independent experiments; read-out: MIC, Ec ATCC 25922
Structure (SMILES),MIC [1],MIC [2],MIC [3],MIC [4],MIC [6],MIC [8],IC50 [5],MIC [7]
COc1ccc2ccc(=O)n(CCN[C@H]3CC[C@H]4[C@@H](C3)OC(=O)N4c3ncc4c(n3)NC(=O)CO4)c2n1 [Compound 16],< 1 µg/mL,1 to 10 µg/mL,1 to 10 µg/mL,1 to 10 µg/mL,< 1 µg/mL,< 1 µg/mL,> 100 µg/mL,< 1 µg/mL
"COc1ncc2ccc(=O)n(CCN[C@H]3CC[C@H]4[C@@H](C3)OC(=O)N4c3ccc4c(n3)NC(=O)CO4)c2n1 [Compound 17, (3aS,6S,7aR)-6-[(2-{2-methoxy-7-oxo-7H,8H-pyrido[2,3-d]pyrimidin-8-yl}ethyl)amino]-3-{3-oxo-2H,3H,4H-pyrido[3,2-b][1,4]oxazin-6-yl}-octahydro-1,3-benzoxazol-2-one]",10 to 100 µg/mL,10 to 100 µg/mL,10 to 100 µg/mL,10 to 100 µg/mL,1 to 10 µg/mL,1 to 10 µg/mL,10 to 100 µg/mL,10 to 100 µg/mL
"N#Cc1ccc2ccc(=O)n(CCN(CCN)[C@@H]3CC[C@@H]4[C@@H](C3)OC(=O)N4c3ccc4c(n3)NC(=O)CO4)c2c1 [Compound 19, 1-(2-{[(3aR,6R,7aR)-2-oxo-3-{3-oxo-2H,3H,4H-pyrido[3,2-b][1,4]oxazin-6-yl}-octahydro-1,3-benzoxazol-6-yl](2-aminoethyl)amino}ethyl)-2-oxo-1,2-dihydroquinoline-7-carbonitrile]",> 100 µg/mL,> 100 µg/mL,10 to 100 µg/mL,10 to 100 µg/mL,< 1 µg/mL,10 to 100 µg/mL,> 100 µg/mL,10 to 100 µg/mL
"O=C1COc2ccc(N3C(=O)O[C@@H]4C[C@H](NCCn5c(=O)ccc6ccc(O)cc65)CC[C@H]43)nc2N1 [Compound 20, 1-(2-{[(3aR,6R,7aR)-2-oxo-3-{3-oxo-2H,3H,4H-pyrido[3,2-b][1,4]oxazin-6-yl}-octahydro-1,3-benzoxazol-6-yl]amino}ethyl)-7-hydroxy-1,2-dihydroquinolin-2-one]",10 to 100 µg/mL,1 to 10 µg/mL,10 to 100 µg/mL,1 to 10 µg/mL,< 1 µg/mL,< 1 µg/mL,> 100 µg/mL,< 1 µg/mL
"COc1ccc2ccc(=O)n(CCN[C@@H]3CC[C@@H]4[C@H](C3)OC(=O)N4c3ccc4c(n3)NC(=O)CO4)c2n1 [Compound 25, 1-(2-{[(3aR,6R,7aS)-2-oxo-3-{3-oxo-2H,3H,4H-pyrido[3,2-b][1,4]oxazin-6-yl}-octahydro-1,3-benzoxazol-6-yl]amino}ethyl)-7-methoxy-1,2-dihydro-1,8-naphthyridin-2-one]",< 1 µg/mL,< 1 µg/mL,< 1 µg/mL,1 to 10 µg/mL,< 1 µg/mL,< 1 µg/mL,10 to 100 µg/mL,< 1 µg/mL
"O=C1COc2ccc(N3C(=O)O[C@@H]4C[C@@H](NCCn5c(=O)cnc6ccc(F)cc65)CC[C@@H]43)nc2N1 [Compound 26, 1-(2-{[(3aS,6S,7aR)-2-oxo-3-{3-oxo-2H,3H,4H-pyrido[3,2-b][1,4]oxazin-6-yl}-octahydro-1,3-benzoxazol-6-yl]amino}ethyl)-7-fluoro-1,2-dihydroquinoxalin-2-one]",< 1 µg/mL,1 to 10 µg/mL,< 1 µg/mL,1 to 10 µg/mL,< 1 µg/mL,< 1 µg/mL,> 100 µg/mL,< 1 µg/mL
"COc1ncc2ccc(=O)n(CCN[C@@H]3CC[C@@H]4[C@@H](C3)OC(=O)N4c3ncc4c(n3)NC(=O)CO4)c2n1 [Compound 33, (3aR,6R,7aR)-6-[(2-{2-methoxy-7-oxo-7H,8H-pyrido[2,3-d]pyrimidin-8-yl}ethyl)amino]-3-{7-oxo-6H,7H,8H-pyrimido[5,4-b][1,4]oxazin-2-yl}-octahydro-1,3-benzoxazol-2-one]",< 1 µg/mL,1 to 10 µg/mL,10 to 100 µg/mL,10 to 100 µg/mL,< 1 µg/mL,< 1 µg/mL,,1 to 10 µg/mL

# Now from value to molecule, other results behind:
MIC [1],MIC [2],MIC [3],MIC [4],MIC [6],MIC [8],Structure (SMILES),IC50 [5],MIC [7]
< 1 µg/mL,1 to 10 µg/mL,10 to 100 µg/mL,1 to 10 µg/mL,< 1 µg/mL,< 1 µg/mL,"COc1cnc2ccc(=O)n(CCN[C@@H]3CC[C@@H]4[C@@H](C3)OC(=O)N4c3ncc4c(n3)NC(=O)CO4)c2c1 [Compound 41, 1-(2-{[(3aR,6R,7aR)-2-oxo-3-{7-oxo-6H,7H,8H-pyrimido[5,4-b][1,4]oxazin-2-yl}-octahydro-1,3-benzoxazol-6-yl]amino}ethyl)-7-methoxy-1,2-dihydro-1,5-naphthyridin-2-one]",,
< 1 µg/mL,1 to 10 µg/mL,1 to 10 µg/mL,10 to 100 µg/mL,< 1 µg/mL,< 1 µg/mL,"COc1ncc2ccc(=O)n(CCN[C@H]3CC[C@H]4[C@H](C3)OC(=O)N4c3ccc4c(n3)NC(=O)CO4)c2n1 [Compound 52, (3aS,6S,7aS)-6-[(2-{2-methoxy-7-oxo-7H,8H-pyrido[2,3-d]pyrimidin-8-yl}ethyl)amino]-3-{3-oxo-2H,3H,4H-pyrido[3,2-b][1,4]oxazin-6-yl}-octahydro-1,3-benzoxazol-2-one]",,< 1 µg/mL
1 to 10 µg/mL,1 to 10 µg/mL,1 to 10 µg/mL,10 to 100 µg/mL,< 1 µg/mL,< 1 µg/mL,"COc1cccc(-c2cccc(CN[C@H]3CC[C@H]4[C@H](C3)OC(=O)N4c3ccc4c(n3)NC(=O)CO4)c2)n1 [Compound 73, (3aS,6S,7aS)-6-({[3-(6-methoxypyridin-2-yl)phenyl]methyl}amino)-3-{3-oxo-2H,3H,4H-pyrido[3,2-b][1,4]oxazin-6-yl}-octahydro-1,3-benzoxazol-2-one]",,1 to 10 µg/mL
,< 1 µg/mL,< 1 µg/mL,1 to 10 µg/mL,< 1 µg/mL,,"COc1cnc2ccc(=O)n(CCCN[C@H]3CC[C@H]4[C@H](C3)OC(=O)N4c3ccc4c(n3)NC(=O)CS4)c2c1 [Compound 96, 1-(3-{[(3aS,6S,7aS)-2-oxo-3-{3-oxo-2H,3H,4H-pyrido[3,2-b][1,4]thiazin-6-yl}-octahydro-1,3-benzoxazol-6-yl]amino}propyl)-7-methoxy-1,2-dihydro-1,5-naphthyridin-2-one]",,< 1 µg/mL
1 to 10 µg/mL,10 to 100 µg/mL,1 to 10 µg/mL,10 to 100 µg/mL,< 1 µg/mL,1 to 10 µg/mL,"O=C1COc2ccc(N3C(=O)O[C@H]4C[C@@H](NCCn5c(=O)ccc6ccc(OCCN7CCOCC7)cc65)CC[C@@H]43)nc2N1 [Compound 97, 1-(2-{[(3aS,6S,7aS)-2-oxo-3-{3-oxo-2H,3H,4H-pyrido[3,2-b][1,4]oxazin-6-yl}-octahydro-1,3-benzoxazol-6-yl]amino}ethyl)-7-[2-(morpholin-4-yl)ethoxy]-1,2-dihydroquinolin-2-one]",,1 to 10 µg/mL
1 to 10 µg/mL,,10 to 100 µg/mL,1 to 10 µg/mL,,1 to 10 µg/mL,"O=C1COc2ccc(N3C(=O)O[C@H]4C[C@@H](NCCn5c(=O)ccc6ccc(OC7CNC7)cc65)CC[C@@H]43)nc2N1 [Compound 103, 1-(2-{[(3aS,6S,7aS)-2-oxo-3-{3-oxo-2H,3H,4H-pyrido[3,2-b][1,4]oxazin-6-yl}-octahydro-1,3-benzoxazol-6-yl]amino}ethyl)-7-(azetidin-3-yloxy)-1,2-dihydroquinolin-2-one]",,
1 to 10 µg/mL,10 to 100 µg/mL,1 to 10 µg/mL,> 100 µg/mL,1 to 10 µg/mL,1 to 10 µg/mL,"N#Cc1ccc2c(ccc(=O)n2CCN[C@H]2CC[C@H]3[C@H](C2)OC(=O)N3c2ccc3c(n2)NC(=O)CO3)c1 [Compound 107, 1-(2-{[(3aS,6S,7aS)-2-oxo-3-{3-oxo-2H,3H,4H-pyrido[3,2-b][1,4]oxazin-6-yl}-octahydro-1,3-benzoxazol-6-yl]amino}ethyl)-2-oxo-1,2-dihydroquinoline-6-carbonitrile]",,1 to 10 µg/mL
